Data as given in patent US8053573B2, “Monomer 5, 6-diphenyl-1.2.4-traizinic derivatives and the use thereof” (Pierre Fabre Dermo-Cosmetique, priority 2004, dated 2011).
Values joined by “and” are separate entries in the source; they are usually repeats but may differ in a detail not shown here. Equal values may be shown once.

Experiments:
Type in all cases: physicochemical
[1] = Spectral distribution in UVA and UVB (290-400 nm); settings: range from 290 nm to 400 nm
From the text: The products tested are classified according to spectral distribution in UVA and UVB in a range from 290 nm to 400 nm.
It is possible to differentiate them according to their spectral distribution:
Products with a narrow spectrum: • Products absorbing in the range between 280 nm and 320 nm (UVB) • Products absorbing in the range between 320 nm and 400 nm (UVA) Products with a broad spectrum: • Products absorbing in UVB (280-320 nm) and UVA-II […] • Products covering UVB and UVA (280-400 nm).

[2] = In vitro SPF in a chemical solvent (Diffey and Robson); settings: ethyl acetate solution, 10 μg/ml, transmittance 290-400 nm
Method: The in vitro methods of determining the protective effectiveness of sun products consist of measuring by transmission spectrophotometry the absorption spectrum of the filter in solution or of the product applied on a substrate with the aim of simulating the surface of the skin. The effectiveness against UVB and/or UVA rays, or the effect on the cutaneous response, are then determined by calculation, taking into account or not the UV radiation action spectrum for the damage considered.
The Sayre/Agin and Diffey/Robson method, used since the 1990s, involves a comparative measurement, with the aid of an integrating-sphere spectroradiometer, of the transition from 290 nm to 400 nm in 5 nm steps, the sample being subjected to UV radiation from a stable known source covering the whole of the UV spectrum (unfiltered xenon).
Diffey and Robson evaluate the erythemal response by the following calculation:
[formula] E(λ)=spectral irradiation in W(m^−2) (nm^−1) at 40° N sun at 20° zenith angle ε=erythematous capacity
The Diffey and Robson formula makes it possible to determine SPF from the measurement of transmittance between 290 nm and 400 nm. Transmittance is measured in solution in ethyl acetate at a concentration of 10 μg/ml using a UV-visible spectrophotometer (Varian CARY 50 Scan).

[3] = In vitro SPF in a primary formula (gel on PMMA plates); settings: PMMA plate, 1.2 mg/cm^2
Method: PMMA (polymethyl methacrylate) plates (50×50 mm, supplied by Europlast) were used.
The dose applied in the in vivo solar product evaluation protocols (2 mg/cm^2) is too high for the type of substrate employed here.
Gels were formulated from the triazines that are objects of this invention and certain reference filters. The molecules are solubilized in Transcutol® CG in a water bath. The solution is then placed under magnetic stirring and a gelling agent, Klucel HF (hydroxypropyl cellulose), is added at a concentration of 2%. Stirring is maintained for 30 minutes. SPF is measured using a Labsphere UV-1000 S Transmittance Analyzer spectrophotometer (Labsphere, North Sutton, N.H., USA).

[4] = Spectral characteristics: molar extinction coefficient and specific absorbance; settings: ethyl acetate, 10 μg/ml; for Maximum specific absorbance UVB / Maximum specific absorbance UVA: A1cm^1%
From the text: The calculation of the molar extinction coefficient (ε) is made from the Beer-Lambert law:
[formula] Wherein: A=absorbance I0=intensity of the incident light I=intensity of the transmitted light ε=molar extinction (or molar absorbance) coefficient in M^−1 cm^−1 l=path length in cm c=concentration in mol/l
The molar extinction coefficient can be expressed with respect to a given mass of the product. It thus makes it possible to be able to compare the coefficients of extinction between products for the same given quantity. This quantity is 1% by weight. The molar extinction coefficient thus becomes the specific absorbance (A1cm^1%).
[formula] Wherein: A1cm^1%=specific absorbance ε=molar extinction coefficient M=molar mass
The spectral characteristics of the compounds in comparison with commercial filters at a concentration of 10 μg/ml are summarized in tables 2-1 and 2-2.
Procedure: The products are dissolved in ethyl acetate to a concentration of 10 μg/ml. The spectra are measured using a dual-beam spectrophotometer (Varian CARY 50 Scan) between 290 nm and 400 nm.

[5] = Solubility study in solvents or excipients used in cosmetics
[6] = Photostability in solution in a chemical solvent (Suntest CPS+); settings: 25 μg deposited from methanol, absorbance vs non-irradiated control, in % (unit assumed); for Photostability at 10 MED mean: Suntest irradiation 10 MED; for Photostability at 20 MED mean: Suntest irradiation 20 MED
From the text: A Suntest CPS+ (Atlas, Linsengenicht/Altenhasslan, Germany) was used. The Suntest makes it possible to reproduce the solar spectrum and thus to carry out exposures inside at any time without weather constraints.
The radiance of the solar simulator was carefully measured with a spectroradiometer (MSS 2044, Bielefeld, Germany). UVB and UVA intensities were 0.49 mW/cm^2 and 6.32 mW/cm^2, respectively. The MED value defined by COLIPA is 5.6 J/cm^2 in total UV (22). The UV total (UVA+UVB) accounts for 14.8% of the energy delivered by the lamp (power 460 W/m^2). An irradiation dose equivalent to 1 MED corresponds to 37.83 J/cm^2 (in total spectrum) delivered by the lamp.
The Suntest test duration is calculated using the following formula: t=H/E with: […]
The solutions of the compounds are prepared at a concentration of 500 μg/ml in methanol. 50 μl (25 μg) of each solution are deposited in a crystallizer, then irradiated in the Suntest at 5, 10 and/or 20 MED. A non-irradiated control is prepared (deposit of 50 μl of solution and addition of 2.450 ml of methanol). The solvent evaporates during irradiation and the products are taken up in 2.5 ml of methanol. After irradiation, the absorbance of each solution is measured with the UV-visible spectrophotometer (Varian CARY 50 Scan).

[7] = Spectral characteristics: molar extinction coefficient and specific absorbance; settings: ethyl acetate, 10 μg/ml; for Maximum specific absorbance UVC: A1cm^1%
[8] = single filter 3% in Transcutol CG / Klucel HF gel
[9] = Finsol V NT ® (C12-C15 alkyl benzoate)

Structure (SMILES) | Spectral distribution [1] | Maximum specific absorbance UVB [4] | Maximum molar extinction coefficient UVB [4] | Wavelength of maximum molar extinction coefficient UVB [4] | Wavelength of maximum specific absorbance UVB [4] | Photostability at 10 MED mean [6] | Photostability at 20 MED mean [6] | Maximum specific absorbance UVC [7] | Maximum molar extinction coefficient UVC [7] | Wavelength of maximum molar extinction coefficient UVC [7] | Wavelength of maximum specific absorbance UVC [7] | Maximum specific absorbance UVA [4] | Maximum molar extinction coefficient UVA [4] [M⁻¹ cm⁻¹] | Wavelength of maximum molar extinction coefficient UVA [4] | Wavelength of maximum specific absorbance UVA [4] | SPF [2] | also measured
COc1ccc(-c2nnc(N)nc2-c2ccc(OC)cc2)cc1 [JR77, 3-amino-5,6-bis(4-methoxyphenyl)-1,2,4-triazine] | absorb in UVB (280-320 nm) and UVA-II (280-340 nm) | – | – | – | – | 73.03 | 61.14 | 631 | 19300 M⁻¹ cm⁻¹ | at 280 | at 280 | 249 | 7600 | at 360 | at 360 | 47.16 | –
COc1ccc(C(=O)CC(=O)c2ccc(C(C)(C)C)cc2)cc1 [Parsol 1789 ®, reference compound] | only absorbs in UVA | – | – | – | – | 57.04 | 6.26 | 278 at | 8633 at M^−1 cm^−1 | 275 | 275 | 1100 | 34100 | at 360 | at 360 | 51.1 | –
CCCCC(CC)COC(=O)C=Cc1ccc(OC)cc1 (centres unmarked) [Parsol MCX ®, reference compound] | – | 848 | 24600 M⁻¹ cm⁻¹ | at 310 | at 310 | 33.38 | 11.63 | – | – | – | – | – | – | – | – | 20.78 | SPF ([3]; single filter 5% in Transcutol CG / Klucel HF gel): 17.2
CC(C)(C)CC(C)(C)c1cc(Cc2cc(C(C)(C)CC(C)(C)C)cc(-n3nc4ccccc4n3)c2O)c(O)c(-n2nc3ccccc3n2)c1 [Tinosorb M ®, reference compound] | absorb in UVB and UVA | 556 | 36600 M⁻¹ cm⁻¹ | at 305 | at 305 | – | – | – | – | – | – | 552 | 36400 | at 345 | at 345 | 54.07 | –
CCCCC(CC)COc1ccc(-c2nc(-c3ccc(OC)cc3)nc(-c3ccc(OCC(CC)CCCC)cc3O)n2)c(O)c1 (centres unmarked) [Tinosorb S ®, reference compound] | absorb in UVB and UVA | 751 | 47150 M⁻¹ cm⁻¹ | at 310 | at 310 | – | – | – | – | – | – | 789 | 49580 | at 345 | at 345 | 76.19 | SPF [3, 8]: 9.8

Continued, in another order:

Spectral distribution [1] | Maximum specific absorbance UVB [4] | Maximum molar extinction coefficient UVB [4] | Wavelength of maximum molar extinction coefficient UVB [4] | Wavelength of maximum specific absorbance UVB [4] | Photostability at 10 MED mean [6] | Photostability at 20 MED mean [6] | Maximum specific absorbance UVC [7] | Maximum molar extinction coefficient UVC [7] | Wavelength of maximum molar extinction coefficient UVC [7] | Wavelength of maximum specific absorbance UVC [7] | Maximum specific absorbance UVA [4] | Maximum molar extinction coefficient UVA [4] [M⁻¹ cm⁻¹] | Wavelength of maximum molar extinction coefficient UVA [4] | Wavelength of maximum specific absorbance UVA [4] | Structure (SMILES) | SPF [2] | also measured
absorb in UVB | 809 | 31100 M⁻¹ cm⁻¹ | at 315 | at 315 | 96.91 | 85.5 | – | – | – | – | – | – | – | – | COc1ccc(-c2nnc(-c3ccc(O)cc3)nc2-c2ccc(OC)cc2)cc1 [JR65, 3-(4-hydroxyphenyl)-5,6-bis(4-methoxyphenyl)-1,2,4-triazine] | 68.21 | SPF [3, 8]: 9.8 and 10.9; Solubility (%) ([5]; Arlasolve DMI ® (dimethyl isosorbide)): 8%; Solubility (%) ([5]; Butylene glycol): 5%; Solubility (%) ([5]; Cetiol SN ® (decyl oleate)): 1%; Solubility (%) ([5]; Cetiol V ® (cetearyl isononanoate)): 2%; Solubility (%) [5, 9]: 1%; Solubility (%) ([5]; Hexylene glycol): 5%; Solubility (%) ([5]; Isopropyl adipate): 2%; Solubility (%) ([5]; Isopropyl myristate): 5%; Solubility (%) ([5]; Myritol 318 ® (caprylic/capric triglycerides)): 0.5%; Solubility (%) ([5]; PEG400 ® (polyethylene glycol)): 5%
absorb in UVB and UVA | 688 at | 27100 at M^−1 cm^−1 | 300 | 300 | 58.45 | 47.81 | 655 at | 25800 M⁻¹ cm⁻¹ | at 270 | 270 | 498 at | 19600 | at 350 | 350 | COc1ccc(-c2nnc(-c3ccc(C#N)cc3)nc2-c2ccc(OC)cc2)cc1 [JR107, 3-(4-cyanophenyl)-5,6-bis(4-methoxyphenyl)-1,2,4-triazine] | – | –
absorb in UVB and UVA | 721 | 28800 M⁻¹ cm⁻¹ | at 295 | at 295 | 98.07 | 97.67 | – | – | – | – | 570 | 22469 | at 340 | at 340 | COc1ccc(-c2nnc(-c3cccc(C#N)c3)nc2-c2ccc(OC)cc2)cc1 [JR113, 3-(3-cyanophenyl)-5,6-bis(4-methoxyphenyl)-1,2,4-triazine] | 67.74 | –
absorb in UVB | 878 at | 48600 M⁻¹ cm⁻¹ | at 305 | 305 | – | – | – | – | – | – | – | – | – | – | CCCCCCCCCCCCOc1ccc(-c2nnc(-c3ccc(OC)cc3)c(-c3ccc(OC)cc3)n2)cc1 [JR173, 3-(4-dodecyloxyphenyl)-5,6-bis(4-methoxyphenyl)-1,2,4-triazine] | 69.02 | Solubility (%) [5, 9]: 7%; Solubility (%) ([5]; PEG400 ® (polyethylene glycol)): 2%
